# Active and inactive are the calls of the source. The rule behind the calls is not given here.
# Test system: Saccharomyces cerevisiae lifespan shortening, growth inhibition
# Assay: yeast lifespan shortening compounds, dose response (AID 849);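 note: yeast growth read as optical density after two days at 30 degrees C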
row,Compound,IC50
1,CCOC(=O)c1ccc(-n2[nH]c(-c3ccccc3)cc2=O)cc1,17.1 µM
2,O=C(Nc1cccc(N=Cc2cc(Cl)cc(Br)c2O)c1)c1ccco1,> 100 µM (inactive)
3,Cc1cc(N/N=C/c2ccc(Cl)cc2Cl)nc(NCc2ccccc2)n1,28.9 µM
4,CCc1cccc(CC)c1NC(=S)NCc1ccc2[nH]c(C)cc2c1,> 100 µM (inactive)
5,COc1cccc(-n2nnnc2S(C)(=O)=O)c1,9.54 µM
6,O=C1C(=C2CCCCC2)SC(=S)N1Cc1ccco1,> 100 µM (inactive)
7,COc1ccc(-c2[nH]ncc2-c2ccc(Cl)cc2)c(O)c1,> 100 µM (inactive)
8,CCc1cccc(C)c1NC(=S)NCc1ccc2[nH]c(C)cc2c1,37.5 µM
9,CCSc1nc(N)nc(-c2cccs2)c1C#N,24.8 µM
10,N#C/C(=C\c1ccc([N+](=O)[O-])o1)c1nc2ccccc2[nH]1,> 100 µM (inactive)
11,Oc1c(I)cc(Cl)c2cccnc12,23 µM
12,c1ccc(-c2nc(-n3ccnc3)nc(-n3ccnc3)n2)cc1,34.3 µM
13,COc1ccccc1N1CCN(C(CNC(=O)c2ccco2)c2cccnc2)CC1 (configuration not stated),> 100 µM (inactive)
14,CCOC(=O)CSc1nnc(CSc2nc(N)c3c(C)c(C)sc3n2)n1-c1ccccc1,> 100 µM (inactive)
15,COc1ccc(CNC(=O)CSc2nnc(-c3ccc(NC(C)=O)cc3)n2C)cc1,> 100 µM (inactive)
16,C=CCSc1nnc2nc3c(nn12)c1cc(C)ccc1n3CC=C,> 100 µM (inactive)
17,COc1ccc2nc(NC(=S)N(C)C)sc2c1,> 100 µM (inactive)
18,CCN1/C(=C/c2ccc3cccc(C)c3[n+]2CC)Sc2ccccc21,9.8 µM
19,Cc1nn(-c2cccc(C(F)(F)F)c2)c(Cl)c1/C=N/Nc1cccc(C(=O)O)c1,39.8 µM

row,Compound,IC50
1,Cc1ccc(-c2nn(C(C)(C)C)c3ncnc(N)c23)cc1,1.72 µM
2,Cc1ccc(O)c(C(=O)CC(=O)c2cccc(F)c2)c1,> 100 µM (inactive)
3,O=C1c2ccccc2C(=O)N1Cc1ccco1,> 100 µM (inactive)
4,CCCCSc1nc(C)c(C(C)=O)cc1C#N,> 100 µM (inactive)
5,COC(=O)CSC1=NS(=O)(=O)c2ccccc21,> 100 µM (inactive)
6,O=C(CSCc1ccco1)Nc1cc(C(F)(F)F)ccc1N1CCOCC1,> 100 µM (inactive)
7,CCOC(=O)CNC(=O)CSc1nnc(-c2ccco2)n1Cc1ccco1,> 100 µM (inactive)
8,CC(=O)O/N=C/c1c(N2CCOCC2)n(C)c2ccccc12,12.4 µM
9,Oc1c(CN2CCc3ccccc3C2)cc(Cl)c2cccnc12,16 µM
10,COc1ccc2[nH]c3c(Cl)ncnc3c2c1,18.5 µM
11,CCOc1ccc(N/N=C(/C#N)C(N)=O)cc1,7.82 µM
12,Cn1cccc1C(=O)Nc1nc(-c2ccccn2)cs1,33.7 µM
13,CC(=O)NC(CCS(C)(=O)=O)C(=O)Nc1ccc2c(c1)OCO2 (configuration not stated),> 100 µM (inactive)
14,COc1ccccc1OCC(=O)n1cc(C(=O)c2cc(Cl)cc(Cl)c2O)cn1,5.95 µM
15,CC(C)C(=O)NC(c1ccccc1)c1cc([N+](=O)[O-])c2cccnc2c1O (configuration not stated),14.2 µM
16,Cc1ccc(-c2[nH]nc(N)c2N=Nc2ccccc2C)cc1,> 100 µM (inactive)
17,COc1cccc(C(=O)O/N=C(\N)Cc2ccc(Cl)cc2)c1,4.09 µM
18,CCCCOC(=O)Sc1nc2ccccc2o1,16 µM
19,COc1ccc(/C=C2/C(=O)ON=C2c2ccccc2)cc1OC,33.3 µM

row,Compound,IC50
1,CCCCN(CCCC)C(=S)N/N=C/c1c(C)[nH]n(-c2ccccc2)c1=O,38.9 µM
2,O=C(c1ccccc1)c1ccc2nc(N3CCCCC3)c3nncn3c2c1,> 100 µM (inactive)
3,O=C(NNC(=S)NC(=O)C12CC3CC(CC(C3)C1)C2)c1ccncc1,19.6 µM
4,c1ccc(-c2csc3nnc(SCc4ccc5c(c4)OCO5)n23)cc1,> 100 µM (inactive)
5,CN1CCN(Cc2cc(COCc3ccccc3)c3cccnc3c2O)CC1,26 µM
6,COc1ccc(NCc2nc3ccccc3n2CCOc2ccc(C)cc2)cc1,31.2 µM
7,Clc1ccccc1N/N=C/c1ccc2c(c1)OCO2,32.5 µM
8,C/C(=N\Nc1ccc(Cl)cc1)c1ccccn1,43.5 µM
9,O=c1c(-c2ccccc2)nc(-c2ccccc2)cn1O,15.1 µM
10,O=S(=O)(Nc1ccc(-c2csc(-c3ccccc3)n2)cc1)c1ccc(F)cc1,> 100 µM (inactive)
11,Cc1ccc(-c2nc(N)sc2-c2ccccc2)cc1C,> 100 µM (inactive)
12,O=S(=O)(Nc1ccc(-c2nc3ccccc3o2)cc1)c1ccccc1,> 100 µM (inactive)
13,CC(=O)n1cc(C(C[N+](=O)[O-])SCCN)c2ccccc21 (configuration not stated),8.5 µM
14,Cc1cccc(Cn2ncc(Cl)c(Cl)c2=O)c1,37.4 µM
15,CCCc1ccc(Oc2cn[nH]c2-c2ccc(O)c(C)c2O)cc1,6.65 µM
16,O=[N+]([O-])c1ccc(Cl)c(S(=O)(=O)N2CCCCCC2)c1,37.4 µM
17,CCSc1nc2ccccc2n1S(=O)(=O)c1ccccc1,> 100 µM (inactive)
18,Cc1noc2ncnc(Sc3ccccc3Cl)c12,26.6 µM
19,Cc1nc2c(F)c(F)c(C(F)(F)F)c(F)c2[nH]1,> 100 µM (inactive)
